According to patent publication US8129537B2, “Compounds as PDE IV and TNF inhibitors” (Rhone-Poulenc Rorer Limited, priority 1993, dated 2012):

| melting point [°C] | Compound |
| --- | --- |
| 210 to 211 | COc1ncc(C(=O)Nc2c(F)cncc2F)cc1OC1CCCC1 [Compound CR, 5-cyclopentyloxy-N-(3,5-difluoropyrid-4-yl)-6-methoxynicotinamide] |
| 124 to 125 | CSc1ncc(C(=O)Cc2c(Cl)cncc2Cl)cc1OC(C)C [Compound CW, 2-(3,5-dichloro-4-pyridyl)-1-(5-isopropyloxy-6-methylthio-3-pyridyl)ethanone] |
| 132 | COc1cnc(C(=O)Cc2c(Cl)cncc2Cl)cc1OC1CCCC1 [Compound FG, 1-(4-cyclopentyloxy-5-methoxypyridin-2-yl)-2-(3,5-dichloropyridin-4-yl)ethanone] |
| 178 to 180 | COc1c[n+]([O-])c(C(=O)Nc2c(Cl)cncc2Cl)cc1OCC1CC1 [FZ, N-(3,5-dichloropyridin-4-yl)-4-cyclopropylmethoxy-5-methoxy-1-oxidopyridinium-2-carboxamide] |
| 170 to 172 | COc1ccc(C(=O)Nc2c(Cl)cc(N)cc2Cl)cc1OC1CCCC1 [BS, N-(2,6-dichloro-4-aminophenyl)-3-cyclopentyloxy-4-methoxybenzamide] |
| 164 to 166 | COc1ccc(C(=O)Nc2c(Cl)cncc2Cl)nc1OC1CCCC1 [Compound CS, 6-cyclopentyloxy-N-(3,5-dichloropyrid-4-yl)-5-methoxypyridine-2-carboxamide] |
| 182 to 183 | COc1ncc(C(=O)Nc2c(Cl)cncc2Cl)cc1OC1CCCC1 [Compound CO, 5-cyclopentyloxy-N-(3,5-dichloropyrid-4-yl)-6-methoxynicotinamide] |
| 129 to 130 | COc1cnc(C(=O)Nc2c(Cl)cncc2Cl)cc1OC1CCCC1 [DA, N-(3,5-dichloropyrid-4-yl)-4-cyclopentyloxy-5-methoxypyridine-2-carboxamide] |
| 167 to 168 | Cc1ncc(C(=S)Nc2c(Cl)cncc2Cl)cc1OC(C)C [Compound CV, N-(3,5-dichloro-4-pyridyl)-5-isopropyloxy-6-methylthionicotinamide] |
| 177 to 178 | COc1ccc(C(=O)Nc2c(Cl)cncc2Cl)cc1OC1C=CCC1 (racemic) [BI, (±)-N-(3,5-dichloropyrid-4-yl)-3-cyclopent-2-enyloxy-4-methoxybenzamide] |

Further lines, the molecule ahead of its results:

| Compound | melting point [°C] |
| --- | --- |
| COc1ncc(C(=O)Cc2c(Cl)cncc2Cl)cc1OC1CCCC1 [Compound CT, 1-(5-cyclopentyloxy-6-methoxypyridin-3-yl)-2-(3,5-dichloropyrid-4-yl)ethanone] | 118 to 119 |
| O=C(Nc1c(Cl)cncc1Cl)c1cc(OC2CCCC2)c(OC(F)F)cn1 [Compound GO, N-(3,5-dichloropyridin-4-yl)-4-cyclopentyloxy-5-difluoromethoxypyridine-2-carboxamide] | 131 to 132 |
| COc1cc(F)c(C(=O)Cc2c(Cl)cncc2Cl)cc1OC1CCCC1 [Compound CH, 2-(3,5-dichloropyrid-4-yl)-1-(3-cyclopentyloxy-6-fluoro-4-methoxyphenyl)ethanone] | 115 to 116.5 |
| COc1ncc(C(=O)Nc2c(C)noc2C)cc1OC1CCCC1 [Compound CQ, 5-cyclopentyloxy-N-(3,5-dimethylisoxazol-4-yl)-6-methoxynicotinamide] | 139 to 140 |
| COc1ccc(C(=O)Nc2ccccc2S(C)(=O)=O)cc1OC1CCCC1 [BM, N-(2-methylsulfonylphenyl)-3-cyclopentyloxy-4-methoxybenzamide] | 119 to 121 |
| COc1ccc(C(=O)Nc2c(Cl)cc(CO)cc2Cl)cc1OC1CCCC1 [BW, N-(2,6-dichloro-4-hydroxymethylphenyl)-3-cyclopentyloxy-4-methoxybenzamide] | 174 to 176 |
| COc1ccc(C(=O)Nc2c(Cl)cc(C=O)cc2Cl)cc1OC1CCCC1 [BY, N-(2,6-dichloro-4-formylphenyl)-3-cyclopentyloxy-4-methoxy-benzamide] | 96 to 98 |
| COc1ccc(C(=O)Nc2c(Cl)cc(NC(C)=O)cc2Cl)cc1OC1CCCC1 [BU, N-(4-acetylamino-2,6-dichlorophenyl)-3-cyclopentyloxy-4-methoxybenzamide] | 250 to 252 |
| COc1ccc(C(=O)C(=O)c2ccncc2)cc1OC1CCCC1 [Compound GK, 1-(3-cyclopentyloxy-4-methoxyphenyl)-2-(pyrid-4-yl)ethane-1,2-dione] | 117 to 119 |
| COc1ncc(C(=O)Nc2c(Cl)cccc2Cl)cc1OC1CCCC1 [Compound CP, N-(2,6-dichlorophenyl)-5-cyclopentyloxy-6-methoxynicotinamide] | 145 to 146 |
| COc1cc(F)c(C(=O)Nc2c(Cl)cncc2Cl)cc1OC1CCCC1 [A, N-(3,5-dichloropyrid-4-yl)-3-cyclopentyloxy-6-fluoro-4-methoxybenzamide] | 143 to 144 |
| COc1ccc(/C=C/c2c(Cl)cccc2Cl)cc1OC1CCCC1 [Compound GF, trans-1-(3-cyclopentyloxy-4-methoxyphenyl)-2-(2,6-dichlorophenyl)ethene] | 47 to 49 |
| COc1ccc(C(=O)Nc2c(Cl)cncc2Cl)cc1OC1CC=CC1 [BK, N-(3,5-dichloropyrid-4-yl)-3-cyclopent-3-enyloxy-4-methoxybenzamide] | 193 to 195 |
| Cc1ncc(C(=S)Nc2c(Cl)cncc2Cl)cc1OC1CCCC1 [Compound CU, 5-cyclopentyloxy-N-(3,5-dichloro-4-pyridyl)-6-methylthionicotinamide] | 144 to 145 |
